Measured values: ChEMBL document CHEMBL1140704, “Further structure-activity relationships study of hybrid 7-{[2-(4-phenylpiperazin-1-yl)ethyl]propylamino}-5,6,7,8-tetrahydronaphthalen-2-ol analogues: identification of a high-affinity D3-preferring agonist with potent in vivo activity with long duration of action” (J Med Chem, 2008)
pEC50, pKi: −log10 of the molar value. Calls of active or inactive are those of the source. The rule behind the calls is not given here.

Assays:
[1] = species on record: Homo sapiens; test: Selectivity for human D3 receptor over human D2L receptor
[2] = molecular target: T1, D(2) dopamine receptor (Homo sapiens, UniProt P14416); test: biochemical
T1 sequence (P14416 whole entry): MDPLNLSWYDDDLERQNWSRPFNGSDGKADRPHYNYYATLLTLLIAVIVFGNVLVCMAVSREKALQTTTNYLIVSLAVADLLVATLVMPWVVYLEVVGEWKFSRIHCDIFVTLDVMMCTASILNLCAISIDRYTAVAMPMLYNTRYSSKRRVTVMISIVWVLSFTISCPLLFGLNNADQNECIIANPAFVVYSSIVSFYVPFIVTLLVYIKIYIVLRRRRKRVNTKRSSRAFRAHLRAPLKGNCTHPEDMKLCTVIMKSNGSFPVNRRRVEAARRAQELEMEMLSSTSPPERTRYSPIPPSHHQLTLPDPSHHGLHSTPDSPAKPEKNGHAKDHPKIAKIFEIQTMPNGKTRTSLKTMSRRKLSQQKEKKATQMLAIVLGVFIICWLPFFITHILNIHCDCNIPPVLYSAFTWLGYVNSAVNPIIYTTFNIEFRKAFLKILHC
Description: Displacement of [3H]spiperone from human cloned dopamine D2L receptor expressed in HEK293 cells

[3] = molecular target: T2, D(3) dopamine receptor (Homo sapiens, UniProt P35462); test: biochemical
T2 sequence (P35462 whole entry): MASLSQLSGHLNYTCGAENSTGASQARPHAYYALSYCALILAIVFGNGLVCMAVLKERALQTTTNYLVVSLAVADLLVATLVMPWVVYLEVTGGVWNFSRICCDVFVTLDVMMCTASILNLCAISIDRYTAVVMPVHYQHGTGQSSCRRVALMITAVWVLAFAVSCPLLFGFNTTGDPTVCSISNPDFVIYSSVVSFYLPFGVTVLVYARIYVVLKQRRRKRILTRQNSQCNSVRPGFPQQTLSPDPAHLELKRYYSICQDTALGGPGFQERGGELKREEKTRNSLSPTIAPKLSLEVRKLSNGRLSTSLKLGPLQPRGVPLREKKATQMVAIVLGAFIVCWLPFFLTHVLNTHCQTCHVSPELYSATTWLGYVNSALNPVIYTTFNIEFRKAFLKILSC
Description: Displacement of [3H]spiperone from human cloned dopamine D3 receptor expressed in HEK293 cells

[4] = molecular target: T1, D(2) dopamine receptor; test: Agonist activity at human cloned dopamine D2L receptor expressed in CHO cells assessed as stimulation of [35S]GTPgammaS binding; assay type: functional, cell-based
[5] = molecular target: T2, D(3) dopamine receptor
Description: Agonist activity at human cloned dopamine D3 receptor expressed in AtT-20 cells assessed as stimulation of [35S]GTP-gamma-S binding

[6] = test system: Rattus norvegicus; test: Effect on rotational activity in 6-OH-DA-Lesioned rat assessed as number of rotations at 2.51 mg/kg, ip; assay type: functional, organism-based; design: dose 2.51 mg/kg
[7] = test system: Rattus norvegicus; test: Effect on rotational activity in 6-OH-DA-Lesioned rat assessed as number of rotations at 2.87 mg/kg, ip after 12 hrs; assay type: functional; settings: route intraperitoneal
[8] = test system: Rattus norvegicus; test: Effect on rotational activity in 6-OH-DA-Lesioned rat assessed as number of rotations at 0.53 mg/kg, ip after 9 hrs; assay type: functional; settings: route intraperitoneal

**Q.** Which Ratio Ki [1] does the source give for `CCCN(CCN1CCN(c2ccccc2)CC1)C1CCc2ccc3c(c2C1)CC(=O)N3` (stereo not given) here?
**A.** 8.27

**Q.** What about the pKi [2] of the same compound?
**A.** 7.04

**Q.** And the pKi [3]?
**A.** 7.96

**Q.** With `CCCN(CCN1CCN(c2ccccc2)CC1)C1CCc2ccc(N)cc2C1` (stereo not given) as the compound, how does the pKi [2] read?
**A.** 6.20

**Q.** What about the pKi [3] of the same compound?
**A.** 7.65

**Q.** How did the Ratio Ki [1] turn out when `CCCN(CCCCN1CCN(c2ccccc2)CC1)C1CCc2ccc(O)cc2C1` (stereo in doubt; (-)-13) [listing 1 of 2 here] was run?
**A.** 15.9

**Q.** Which Ratio Ki [1] does the source give for `CCCN(CCN1CCN(c2ccccc2)CC1)C1CCc2cc(O)c(O)cc2C1` (stereo not given) here?
**A.** 50.6

**Q.** What about the pKi [2] of the same compound?
**A.** 7.15

**Q.** What about the pKi [3] of the same compound?
**A.** 8.86

**Q.** Which results are given for `CCCN(CCN1CCN(c2ccccc2OC)CC1)C1CCc2c(O)cccc2C1` (single isomer, unassigned; (-)) [listing 1 of 2 here]?
**A.** pEC50 [4]: 8.81; pEC50 [5]: 10.10; pKi [2]: 8.02; pKi [3]: 9.34

**Q.** Which results are given for `CCCN(CCN1CCN(c2ccccc2)CC1)C1CCc2ccc(O)cc2C1` (stereo not given)?
**A.** Ratio EC50 [1]: 17.6; Ratio Ki [1]: 91; pEC50 [4]: 7.91; Activity [6]: Active; pEC50 [5]: 9.16; pKi [2]: 6.85; pKi [3]: 8.81

**Q.** `CCCN(CCCCN1CCN(c2ccccc2)CC1)C1CCc2ccc(O)cc2C1` (stereo in doubt; (-)-13) [listing 2 of 2 here] was tested. Which pKi [2] did it give?
**A.** 7.71

**Q.** And the pKi [3]?
**A.** 8.91

**Q.** `CCCN(CCCCN1CCN(c2ccccc2)CC1)C1CCc2ccc(O)cc2C1` (stereo in doubt; (+)-13) [listing 1 of 2 here] was tested. Which Ratio Ki [1] did it give?
**A.** 25.8

**Q.** Which results are given for `CCCN(CCN1CCN(c2ccccc2OC)CC1)C1CCc2c(O)cccc2C1` (racemic) [listing 1 of 2 here]?
**A.** pKi [2]: 7.45; pKi [3]: 8.55

**Q.** With `CCCN(CCN1CCN(c2ccccc2OC)CC1)C1CCc2c(O)cccc2C1` (racemic) [listing 2 of 2 here] as the compound, how does the Ratio Ki [1] read?
**A.** 12.8

**Q.** What does the source list for `CCCN(CCN1CCN(c2ccccc2OC)CC1)C1CCc2c(O)cccc2C1` (single isomer, unassigned; (+)) [listing 1 of 2 here]?
**A.** pKi [2]: 7.05; pKi [3]: 7.73

**Q.** What does the source list for `CCCN(CCCCN1CCN(c2ccccc2)CC1)C1CCc2ccc(O)cc2C1` (stereo in doubt; (+)-13) [listing 2 of 2 here]?
**A.** pKi [2]: 7.71; pKi [3]: 9.13

**Q.** Which results are given for `CCCN(CCN1CCN(c2ccccc2OC)CC1)C1CCc2c(O)cccc2C1` (single isomer, unassigned; (-)) [listing 2 of 2 here]?
**A.** Ratio EC50 [1]: 19.4; Ratio Ki [1]: 20.9

**Q.** Which Ratio Ki [1] does the source give for `CCCN(CCN1CCN(c2ccccc2OC)CC1)C1CCc2c(O)cccc2C1` (single isomer, unassigned; (+)) [listing 2 of 2 here] here?
**A.** 4.72

**Q.** What does the source list for `CCCN(CCCCN1CCN(c2ccccc2)CC1)C1CCc2cc(O)c(O)cc2C1` (stereo not given)?
**A.** Ratio Ki [1]: 7.51; pKi [2]: 7.66; pKi [3]: 8.54

**Q.** What does the source list for `CCCN(CCN1CCN(c2cccc(Cl)c2Cl)CC1)C1CCc2c(O)cccc2C1` (racemic)?
**A.** Ratio Ki [1]: 32.2; pKi [2]: 7.84; pKi [3]: 9.35

**Q.** Which Ratio Ki [1] does the source give for `CCCN(CCN1CCN(c2ccccc2)CC1)C1CCc2cc(O)ccc2C1` (stereo not given) here?
**A.** 57.9

**Q.** What about the pKi [2] of the same compound?
**A.** 6.19

**Q.** And the pKi [3]?
**A.** 7.95

**Q.** With `CCCN(CCN1CCN(c2ccccc2)CC1)C1CCc2c(O)cccc2C1` (stereo in doubt; (-)-25) as the compound, how does the Activity [7] read?
**A.** 4319

**Q.** And the Activity [8]?
**A.** 3609

**Q.** What does the source list for `Oc1ccc2c(c1)CC(N(CCc1cccs1)CCN1CCN(c3ccccc3)CC1)CC2` (stereo not given)?
**A.** Ratio Ki [1]: 1.03; pKi [2]: 7.61; pKi [3]: 7.62

**Q.** With `CCCN(CCCN1CCN(c2ccccc2)CC1)C1CCc2ccc(O)cc2C1` (stereo not given) as the compound, how does the Ratio Ki [1] read?
**A.** 16.2

**Q.** What about the pKi [2] of the same compound?
**A.** 6.78

**Q.** What about the pKi [3] of the same compound?
**A.** 7.99
